These results are taken from patent US7923561B2 (Hoffmann-La Roche Inc., priority 2006, dated 2011).

Broadly, the Ki is a dissociation constant, usually derived from enzyme kinetics or from competition with a known ligand.

In the test the target is T1, recombinant human 5-HT5A receptor (Homo sapiens, UniProt P47898).
T1 construct: expressed in transfected cells; host or cells: HEK-EBNA (Human Embryonic Kidney-EBNA) cells, transient cDNA expression, membranes
T1 sequence (P47898 whole entry): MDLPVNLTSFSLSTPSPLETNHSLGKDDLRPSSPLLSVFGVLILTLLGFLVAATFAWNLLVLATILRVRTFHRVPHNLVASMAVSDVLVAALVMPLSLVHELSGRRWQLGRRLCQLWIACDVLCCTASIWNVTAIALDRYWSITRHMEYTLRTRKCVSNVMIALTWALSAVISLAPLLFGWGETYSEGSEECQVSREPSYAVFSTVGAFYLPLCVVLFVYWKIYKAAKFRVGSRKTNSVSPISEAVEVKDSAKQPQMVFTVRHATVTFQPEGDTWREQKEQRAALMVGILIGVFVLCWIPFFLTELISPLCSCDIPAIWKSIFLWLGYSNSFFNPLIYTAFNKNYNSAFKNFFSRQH
Kind of test: [3H]LSD radioligand binding assay, membranes of HEK-EBNA cells transiently expressing 5-HT5A receptors. To be noted: [3H]LSD approx. 1 nM, SPA beads, 120 min at room temperature; Ki from IC50 by Cheng-Prussoff equation. On the procedure:
A [^3H]LSD radioligand binding assay was used to determine the affinity of the compounds for the recombinant human 5-HT5A receptor, in membranes from transiently (cDNA) expressed 5-HT5A receptors in Human Embryonic Kidney-EBNA (HEK-EBNA) cells. Assay buffer consisted of Tris (50 mM) buffer containing 1 mM EGTA, 10 mM MgCl2 (pH 7.4) and 10 μM pargyline. The binding assay was carried out in 96-well-plates in the presence of [^3H]LSD (approximately 1 nM), approximately 2 μg/well of membrane protein, and 0.5 mg of Ysi-poly-1-lysine SPA beads in a final volume of 200 μl of buffer. Non-specific binding was defined using methiothepin 2 μM. Compounds were tested at 10 concentrations. All assays were conducted in duplicate and repeated at least two times. Assay plates were incubated for 120 min at room temperature before centrifugation. Bound ligand was determined using a Packard Topcount scintillation counter. IC50 values were calculated using a non-linear curve fitting program and Ki values calculated using the Cheng-Prussoff equation.
For the compound `Fc1cc(F)cc(CNc2cccc3nc(NC4COc5ccccc54)ccc23)c1` (racemic) [Example 17, rac-N5-(3,5-Difluoro-benzyl)-N2-(2,3-dihydro-benzofuran-3-yl)-quinoline-2,5-diamine], the Ki worked out at 9.24 nM.
Then `c1cncc(CNc2cccc3nc(NC4COc5ccccc54)ccc23)c1` (racemic) [Example 18, rac-N2-(2,3-Dihydro-benzofuran-3-yl)-N5-pyridin-3-ylmethyl-quinoline-2,5-diamine], with 22.1 nM; and `COc1cccc2c1C(Nc1ccc3c(NS(=O)(=O)c4cc(F)c(F)c(F)c4)cccc3n1)CC2` (racemic) [Example 19, rac-3,4,5-Trifluoro-N-[2-(7-methoxy-indan-1-ylamino)-quinolin-5-yl]-benzenesulfonamide], with 7.18 nM; and `COc1ccc2c(c1)C(Nc1ccc3c(NS(=O)(=O)c4ccc(F)cc4)cccc3n1)CC2` (racemic) [Example 21, rac-4-Fluoro-N-[2-(6-methoxy-indan-1-ylamino)-quinolin-5-yl]-benzenesulfonamide], with 15.8 nM.
Then `COc1ccc2c(c1)C(Nc1ccc3c(NCc4cccnc4)cccc3n1)CC2` (racemic) [Example 23, rac-N2-(6-Methoxy-indan-1-yl)-N5-pyridin-3-ylmethyl-quinoline-2,5-diamine], with 23.5 nM.
Then `COc1cccc2c1C(Nc1ccc3c(NS(=O)(=O)c4ccc(F)cc4)cccc3n1)CC2` (racemic) [Example 28, rac-4-Fluoro-N-[2-(7-methoxy-indan-1-ylamino)-quinolin-5-yl]-benzenesulfonamide], with 4.23 nM.
For `COc1ccc2c(c1)C(Nc1ccc3c(NCc4cc(F)cc(F)c4)cccc3n1)CC2` (racemic) [Example 29, rac-N5-(3,5-Difluoro-benzyl)-N2-(6-methoxy-indan-1-yl)-quinoline-2,5-diamine], the Ki was 9.72 nM.
On to `COc1cccc2c1C(Nc1ccc3c(NCc4cccc5[nH]ccc45)cccc3n1)CC2` (racemic) [Example 57, rac-N5-(1H-Indol-4-ylmethyl)-N2-(7-methoxy-indan-1-yl)-quinoline-2,5-diamine], for which the inhibitory constant (Ki) came to 3.7 nM.
Then `COc1cccc2c1C(Nc1ccc3c(NS(=O)(=O)c4cc(F)cc(F)c4)cccc3n1)CCC2` (racemic) [Example 59, rac 3,5-Difluoro-N-[2-(8-methoxy-1,2,3,4-tetrahydro-naphthalen-1-ylamino)-quinolin-5-yl]-benzenesulfonamide], with 13.4 nM; and `O=S(=O)(Nc1cccc2nc(NC3CC4CCC3C4)ccc12)c1ccc(F)cc1` (racemic) [Example 60, rac-exo-N-[2-(Bicyclo[2.2.1]hept-2-ylamino)-quinolin-5-yl]-4-fluoro-benzenesulfonamide], with 197 nM.
The value for `COc1cccc2c1C(Nc1ccc3c(NS(=O)(=O)c4cccc5c4ccn5C)cccc3n1)CC2` (racemic) [Example 61, rac-1-Methyl-1H-indole-4-sulfonic acid [2-(7-methoxy-indan-1-ylamino)-quinolin-5-yl]-amide] was 4.66 nM; that for `O=S(=O)(Nc1cccc2nc(NC3CCCc4ccccc43)ccc12)c1cc(F)cc(F)c1` (racemic) [Example 62, rac-3,5-Difluoro-N-[2-(1,2,3,4-tetrahydro-naphthalen-1-ylamino)-quinolin-5-yl]-benzenesulfonamide] was 60.7 nM.
Then `COc1cccc2c1C(Nc1ccc3c(NCc4cnc[nH]4)cccc3n1)CCC2` (racemic) [Example 67, Rac-N5-(3H-Imidazol-4-ylmethyl)-N2-(8-methoxy-1,2,3,4-tetrahydro-naphthalen-1-yl)-quinoline-2,5-diamine], with 10.5 nM; and `COc1cccc2c1C(Nc1ccc3c(NCc4c[nH]nn4)cccc3n1)CCC2` (racemic) [Example 68, Rac-N2-(8-Methoxy-1,2,3,4-tetrahydro-naphthalen-1-yl)-N5-(1H-[1,2,3]triazol-4-ylmethyl)-quinoline-2,5-diamine], with 15.3 nM; and `COc1cccc2c1C(Nc1ccc3c(NCc4cccc5[nH]ccc45)cccc3n1)CCC2` (racemic) [Example 70, Rac-N5-(1H-Indol-4-ylmethyl)-N2-(8-methoxy-1,2,3,4-tetrahydro-naphthalen-1-yl)-quinoline-2,5-diamine], with 15.9 nM.
With `COc1ccc2c(c1)C(Nc1ccc3c(NS(=O)(=O)c4cc(F)c(F)c(F)c4)cccc3n1)CC2` (single isomer, unassigned; (+)) [Example 20, (+)-3,4,5-Trifluoro-N-[2-(6-methoxy-indan-1-ylamino)-quinolin-5-yl]-benzenesulfonamide], the Ki worked out at 18.1 nM.
The value for `c1cncc(CNc2cccc3nc(NC4COc5ccccc54)ccc23)c1` (single isomer, unassigned; (+)) [Example 27, (+)-N2-2,3-Dihydro-benzofuran-3-yl-N5-pyridin-3-ylmethyl-quinoline-2,5-diamine] was 25.8 nM.
Then `COc1ccc2c(c1)C(Nc1ccc3c(NCc4cccc(S(C)(=O)=O)c4)cccc3n1)CC2` (single isomer, unassigned; (+)) [Example 30, (+)-N5-(3-Methanesulfonyl-benzyl)-N2-(6-methoxy-indan-1-yl)-quinoline-2,5-diamine], with 19 nM; and `Fc1cc(F)cc(CNc2cccc3nc(NC4COc5ccccc54)ccc23)c1` (single isomer, unassigned; (+)) [Example 32, (+)-N5-(3,5-Difluoro-benzyl)-2,3-dihydro-benzofuran-3-yl-quinoline-2,5-diamine], with 12.7 nM; and `COc1ccc2c(c1)C(Nc1ccc3c(NS(=O)(=O)c4ccc(F)cc4)cccc3n1)CC2` (single isomer, unassigned; (+)) [Example 33, (+)-4-Fluoro-N-[2-(6-methoxy-indan-1-ylamino)-quinolin-5-yl]-benzenesulfonamide], with 12 nM.
Then `COc1ccc2c(c1)C(Nc1ccc3c(NCc4cc(F)cc(F)c4)cccc3n1)CC2` (single isomer, unassigned; (+)) [Example 35, (+)-N5-(3,5-Difluoro-benzyl)-N2-(6-methoxy-indan-1-yl)-quinoline-2,5-diamine], with 7.81 nM; and `COc1ccc2c(c1)C(Nc1ccc3c(NCc4cccnc4)cccc3n1)CC2` (single isomer, unassigned; (+)) [Example 37, (+)-N2-(6-Methoxy-indan-1-yl)-N5-pyridin-3-ylmethyl-quinoline-2,5-diamine], with 17.8 nM; and `O=S(=O)(Nc1cccc2nc(NC3COc4ccccc43)ccc12)c1cc(F)cc(F)c1` (single isomer, unassigned; (+)) [Example 41, (+)-N-{2-[(2,3-Dihydro-benzofuran-3-yl)amino]-quinolin-5-yl}-3,5-difluoro-benzenesulfonamide], with 22.9 nM.
In the case of `O=S(=O)(Nc1cccc2nc(N[C@@H]3CCc4ccccc43)ccc12)c1ccc(F)cc1` [Example 1, 4-Fluoro-N-[2-((R)-indan-1-ylamino)-quinolin-5-yl]-benzenesulfonamide], the inhibition constant Ki was determined as 3.76 nM.
The value for `c1cncc(COc2cccc3nc(N[C@@H]4CCc5ccccc54)ccc23)c1` [Example 4, (R)-Indan-1-yl-[5-(pyridin-3-ylmethoxy)-quinolin-2-yl]-amine] was 37.3 nM; that for `O=S(=O)(Nc1cccc2nc(N[C@@H]3CCc4ccccc43)ccc12)c1ccc(Cl)s1` [Example 5, 5-Chloro-thiophene-2-sulfonic acid [2-((R)-indan-1-ylamino)-quinolin-5-yl]-amide] was 3.62 nM; that for `Fc1cc(F)cc(CNc2cccc3nc(N[C@@H]4CCc5ccccc54)ccc23)c1` [Example 6, N5-(3,5-Difluoro-benzyl)-N2-(R)-indan-1-yl-quinoline-2,5-diamine] was 1.85 nM.
The value for `Clc1ccc(Nc2cccc3nc(N[C@@H]4CCc5ccccc54)ccc23)cc1` [Example 7, N5-(4-Chloro-phenyl)-N2-(R)-indan-1-yl-quinoline-2,5-diamine] was 2.84 nM; that for `CN(c1cccc2nc(N[C@@H]3CCc4ccccc43)ccc12)S(=O)(=O)c1ccc(F)cc1` [Example 8, 4-Fluoro-N-[2-((R)-indan-1-ylamino)-quinolin-5-yl]-N-methyl-benzenesulfonamide] was 13.5 nM; that for `Fc1ccc(Oc2cccc3nc(N[C@@H]4CCc5ccccc54)ccc23)cc1` [Example 9, [5-(4-Fluoro-phenoxy)-quinolin-2-yl]-(R)-indan-1-yl-amine] was 90.9 nM.
For `O=S(=O)(Nc1cccc2nc(N[C@@H]3CCc4ccccc43)ccc12)c1cc(F)cc(F)c1` [Example 11, 3,5-Difluoro-N-[2-((R)-indan-1-ylamino)-quinolin-5-yl]-benzenesulfonamide], the Ki was found to be 5.86 nM.
Then `c1cncc(CNc2cccc3nc(N[C@@H]4CCc5ccccc54)ccc23)c1` [Example 12, N2-(R)-Indan-1-yl-N5-pyridin-3-ylmethyl-quinoline-2,5-diamine], with 5.13 nM.
Then `O=S(=O)(Nc1cccc2nc(N[C@@H]3CCc4ccccc43)ccc12)c1cc(F)c(F)c(F)c1` [Example 16, 3,4,5-Trifluoro-N-[2-((R)-indan-1-ylamino)-quinolin-5-yl]-benzenesulfonamide], with 11.1 nM.
Then `COc1cccc2c1C(Nc1ccc3c(NS(=O)(=O)c4cc(F)cc(F)c4)cccc3n1)CC2` (stereo not shown) [Example 39, 3,5-Difluoro-N-[2-(7-methoxy-indan-1-ylamino)-quinolin-5-yl]-benzenesulfonamide], with 4.57 nM.
